Article PMC10874388, “Cyclic peptides discriminate BCL-2 and its clinical mutants from BCL-XL by engaging a single-residue discrepancy” (Nature Communications, 2024)
Where “and” joins values, the source holds several entries; their conditions need not be identical. Identical values can stand only once.

Tests used:
Assay type in all cases: cell-based
[1] = test system: A549 cells overexpressing BCL-2 G101V; experiment: Cell viability assay, A549 stably overexpressing BCL-2 G101V; conditions: for luminescence reading, everage / inhibition rate / luminescence reading (raw, replicate wells): BCL2/G101V A549; for luminescence reading, everage: mean of 6 wells
Description: Cell viability was measured using CellTiter-Glo® 2.0 Reagent (Promega, G9242). […] After different inhibitors were added into serum-free medium and cultured for 4 h (RS4:11 for 6 h), FBS were supplemented to 10% and then incubated totally for 24 h or 48 h. Finally, the IC50 values were calculated based on measurements using a microplate reader (Thermo, Varioskan LUX). Statistical analysis was performed using software GraphPad Prism 7.0.
Lentivirus packaging vectors pMDLg/pRRE, pRSV-Rev, and pVSV-G were obtained from Prof. Han Jiahuai’s lab (Xiamen University). Lentiviruses were produced using 3rd-generation lentivirus packaging plasmids transiently transfected into HEK293T cells with the constructs of interest using 0.25 M CaCl2. Media was changed after 16 h, and supernatants containing infectious virus particles were harvested 24 h later. A second viral harvest was made following a further 24 h incubation with fresh media. Virus containing supernatant was filtered through a […], and stored at 4 °C or −80 °C until being used. Typically, A549 cells were seeded into 10 cm cell culture dishes at 4 ~ 8 × 10^5 cells/cm^2. An equivalent volume of virus containing culture medium was added along with polybrene (Sigma) to a final concentration of 10 µg/mL. Cells were incubated at 37 °C for 20 h, before they were washed and resuspended in fresh culture media. The expression level of BCL-2 was measured by qPCR and western blot methods.

[2] = test system: Jurkat cells; experiment: Cell viability assay (CellTiter-Glo), Jurkat; conditions: for inhibition relative to 0 uM control, replicates / raw viability signal, replicates: listed as ABT199
In short: (§1)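 Compounds added in serum-free medium for 4 h (RS4:11: 6 h), then FBS brought to 10% and incubation continued to 24 h or 48 h total at 37 °C, 5% CO2. Viability by CellTiter-Glo 2.0 luminescence; IC50 calculated.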

[3] = test system: RS4:11 cells; experiment: Cell viability assay (CellTiter-Glo), RS4:11; conditions: for raw luminescence reading / inhibition rate: RS4:11; for raw luminescence reading: listed as ABT199
In short: as §1

With `CC1(C)CCC(CN2CCN(c3ccc(C(=O)NS(=O)(=O)c4ccc(NCC5CCOCC5)c([N+](=O)[O-])c4)c(Oc4cnc5[nH]ccc5c4)c3)CC2)=C(c2ccc(Cl)cc2)C1` [venetoclax] the “luminescence reading, everage” value ([1]; ABT-199 0.78125 uM) was 568283, the inhibition rate ([1]; ABT-199 0.78125 uM, replicate wells) was 4.23% and 7% and 1.87% and 8% and 6% and 13% and the “luminescence reading (raw, replicate wells)” value ([1]; ABT-199 1.5625 uM) was 398200 and 407800 and 413600 and 450500 and 408700 and 467800. The “luminescence reading, everage” value ([1]; ABT-199 1.5625 uM) was 424433, the inhibition rate ([1]; ABT-199 1.5625 uM, replicate wells) was 33% and 32% and 26% and 23% and the “luminescence reading (raw, replicate wells)” value ([1]; ABT-199 3.125 uM) was 271900 and 280300 and 266200 and 296500 and 277300 and 344500. For the same compound, the “luminescence reading, everage” value ([1]; ABT-199 3.125 uM) was 289450, the inhibition rate ([1]; ABT-199 3.125 uM, replicate wells) was 54% and 56% and 51% and 43% and the “luminescence reading (raw, replicate wells)” value ([1]; ABT-199 6.25 uM) was 262900 and 273800 and 273900 and 296400 and 264200 and 315700. For the same compound, the “luminescence reading, everage” value ([1]; ABT-199 6.25 uM) was 281150, the inhibition rate ([1]; ABT-199 6.25 uM, replicate wells) was 51% and 48% and the “luminescence reading (raw, replicate wells)” value ([1]; ABT-199 12.5 uM) was 184500 and 179700 and 182600 and 196200 and 190700 and 205800. The “luminescence reading, everage” value ([1]; ABT-199 12.5 uM) was 189917, the inhibition rate ([1]; ABT-199 12.5 uM, replicate wells) was 68% and 69% and 66% and the “luminescence reading (raw, replicate wells)” value ([1]; ABT-199 25 uM) was 98970 and 101200 and 102400 and 107200 and 99210 and 118800. The “luminescence reading, everage” value ([1]; ABT-199 25 uM) was 104630, the inhibition rate ([1]; ABT-199 25 uM, replicate wells) was 83% and 82% and 80% and the “luminescence reading (raw, replicate wells)” value ([1]; ABT-199 50 uM) was 50230 and 51420 and 49850 and 51590 and 53640 and 55790. The “luminescence reading, everage” value ([1]; ABT-199 50 uM) was 52087, the inhibition rate ([1]; ABT-199 50 uM, replicate wells) was 91% and the “luminescence reading (raw, replicate wells)” value ([1]; ABT-199 100 uM) was 16880 and 17260 and 16270 and 16910 and 17660 and 17950. The “luminescence reading, everage” value ([1]; ABT-199 100 uM) was 17155, the “luminescence reading (raw, replicate wells)” value ([1]; ABT-199 200 uM) was 5500 and 6087 and 6493 and 5130 and 5793 and 6329 and the “luminescence reading, everage” value ([1]; ABT-199 200 uM) was 5889. It also gave an inhibition at 1.5625 µM ([1]; Homo sapiens, A549, BCL2/G101V A549, ABT-199 1.5625 uM, replicate wells, read-out: inhibition rate) of 35%, an inhibition at 3.125 µM ([1]; Homo sapiens, A549, BCL2/G101V A549, ABT-199 3.125 uM, replicate wells, read-out: inhibition rate) of 55% and an inhibition at 6.25 µM ([1]; Homo sapiens, A549, BCL2/G101V A549, ABT-199 6.25 uM, replicate wells, read-out: inhibition rate) of 57%. For the same compound, the inhibition at 12.5 µM ([1]; Homo sapiens, A549, BCL2/G101V A549, ABT-199 12.5 uM, replicate wells, read-out: inhibition rate) was 70%, the inhibition at 25 µM ([1]; Homo sapiens, A549, BCL2/G101V A549, ABT-199 25 uM, replicate wells, read-out: inhibition rate) was 84% and the inhibition at 50 µM ([1]; Homo sapiens, A549, BCL2/G101V A549, ABT-199 50 uM, replicate wells, read-out: inhibition rate) was 92%. For the same compound, the inhibition at 100 µM ([1]; Homo sapiens, A549, BCL2/G101V A549, ABT-199 100 uM, replicate wells, read-out: inhibition rate) was 97%, the inhibition at 200 µM ([1]; Homo sapiens, A549, BCL2/G101V A549, ABT-199 200 uM, replicate wells, read-out: inhibition rate) was 99% and the IC50 ([1]; Homo sapiens, A549, 48 h, CellTiter-Glo, n = 6) was 4.1 ± 0.3 µM. The “inhibition relative to 0 uM control, replicates” value ([2]; 0.09375 uM) was 3.52% and 1.46% and 6% and 5% (2×) and 2.56%, the “raw viability signal, replicates” value ([2]; 0.09375 uM) was 1920000 and 1961000 and 1868000 and 1890000 and 1939000 and 1891000 and the “inhibition relative to 0 uM control, replicates” value ([2]; 0.1875 uM) was 17% and 21% (2×) and 20% (2×). The “raw viability signal, replicates” value ([2]; 0.1875 uM) was 1613000 and 1643000 and 1579000 and 1582000 and 1598000 and 1590000, the “inhibition relative to 0 uM control, replicates” value ([2]; 0.375 uM) was 36% and 31% and 32% and 27% and 22% and 17% and the “raw viability signal, replicates” value ([2]; 0.375 uM) was 1276000 and 1374000 and 1347000 and 1456000 and 1547000 and 1657000. The “inhibition relative to 0 uM control, replicates” value ([2]; 0.75 uM) was 38% and 41% and 36% and 33% and 32%, the “raw viability signal, replicates” value ([2]; 0.75 uM) was 1124000 and 1225000 and 1165000 and 1278000 and 1326000 and 1356000 and the “inhibition relative to 0 uM control, replicates” value ([2]; 1.5 uM) was 52% and 54% (2×) and 53% and 47%. The “raw viability signal, replicates” value ([2]; 1.5 uM) was 903200 and 948100 and 908900 and 906300 and 926500 and 1061000, the “inhibition relative to 0 uM control, replicates” value ([2]; 3 uM) was 86% (3×) and 87% (2×) and the “raw viability signal, replicates” value ([2]; 3 uM) was 248500 and 275900 and 263600 and 270200 and 263000 and 279700. The inhibition at 0.1875 µM ([2]; Homo sapiens, 0.1875 uM, read-out: inhibition relative to 0 uM control, replicates) was 19%, the inhibition at 0.75 µM ([2]; Homo sapiens, 0.75 uM, read-out: inhibition relative to 0 uM control, replicates) was 44% and the inhibition at 1.5 µM ([2]; Homo sapiens, 1.5 uM, read-out: inhibition relative to 0 uM control, replicates) was 55%. The inhibition at 3 µM ([2]; Homo sapiens, 3 uM, read-out: inhibition relative to 0 uM control, replicates) was 88%, the IC50 ([2]; Homo sapiens, 48 h treatment, CellTiter-Glo) was 1.2 ± 0.2 µM and the inhibition at 0.000390625 µM ([3]; Homo sapiens, RS4-11, RS4:11, 0.390625 nM, single wells, read-out: inhibition rate) was 27%. For the same compound, the inhibition at 0.00078125 µM ([3]; Homo sapiens, RS4-11, RS4:11, 0.78125 nM, single wells, read-out: inhibition rate) was 67%, the inhibition at 0.0015625 µM ([3]; Homo sapiens, RS4-11, RS4:11, 1.5625 nM, single wells, read-out: inhibition rate) was 95% and the inhibition at 0.003125 µM ([3]; Homo sapiens, RS4-11, RS4:11, 3.125 nM, single wells, read-out: inhibition rate) was 98%. For the same compound, the inhibition at 0.00625 µM ([3]; Homo sapiens, RS4-11, RS4:11, 6.25 nM, single wells, read-out: inhibition rate) was 100%, the inhibition at 0.0125 µM ([3]; Homo sapiens, RS4-11, RS4:11, 12.5 nM, single wells, read-out: inhibition rate) was 100% and the inhibition at 0.025 µM ([3]; Homo sapiens, RS4-11, RS4:11, 25 nM, single wells, read-out: inhibition rate) was 100%. The inhibition at 0.05 µM ([3]; Homo sapiens, RS4-11, RS4:11, 50 nM, single wells, read-out: inhibition rate) was 100%, the inhibition at 0.1 µM ([3]; Homo sapiens, RS4-11, RS4:11, 100 nM, single wells, read-out: inhibition rate) was 100% and the inhibition at 0.2 µM ([3]; Homo sapiens, RS4-11, RS4:11, 200 nM, single wells, read-out: inhibition rate) was 100%. The IC50 ([3]; Homo sapiens, RS4-11, 48 h treatment, CellTiter-Glo, small-molecule inhibitors, cells marked (nM)) was 0.5 ± 0.1 nM, the raw luminescence reading ([3]; 0.012207 nM, single wells) was 473100 and 440900 and 421900 and 464800 and 440500 and 404600 and the raw luminescence reading ([3]; 0.0244141 nM, single wells) was 468000 and 467900 and 427500 and 463600 and 451400 and 411500. The raw luminescence reading ([3]; 0.0488281 nM, single wells) was 464300 and 463300 and 420200 and 448100 and 441000 and 405800, the raw luminescence reading ([3]; 0.0976562 nM, single wells) was 446400 and 453400 and 406000 and 426100 and 420400 and 382600 and the raw luminescence reading ([3]; 0.195312 nM, single wells) was 418900 and 420900 and 384800 and 390800 and 394900 and 350200. The raw luminescence reading ([3]; 0.390625 nM, single wells) was 317400 and 330800 and 297800 and 297300 and 296900 and 256100, the inhibition rate ([3]; 0.390625 nM, single wells, listed as ABT199, 0.000390625 µM) was 24% and 32% and 41% and the raw luminescence reading ([3]; 0.78125 nM, single wells) was 141300 and 149000 and 125700 and 134100 and 136000 and 117900. For the same compound, the inhibition rate ([3]; 0.78125 nM, single wells, listed as ABT199, 0.00078125 µM) was 66% and 71% and 69% and 73%, the raw luminescence reading ([3]; 1.5625 nM, single wells) was 23070 and 25650 and 25890 and 29130 and 27640 and 29210 and the inhibition rate ([3]; 1.5625 nM, single wells, listed as ABT199, 0.0015625 µM) was 94% and 93%. For the same compound, the raw luminescence reading ([3]; 3.125 nM, single wells) was 9731 and 10360 and 11130 and 12480 and 11890 and 12850, the inhibition rate ([3]; 3.125 nM, single wells, listed as ABT199, 0.003125 µM) was 97% and the raw luminescence reading ([3]; 6.25 nM, single wells) was 514.1 and 705.1 and 803.0 and 736.8 and 691.7 and 772.7. The raw luminescence reading ([3]; 12.5 nM, single wells) was 355.5 and 246.5 and 256.3 and 381.9 and 264.2 and 272.2, the raw luminescence reading ([3]; 25 nM, single wells) was 183.0 and 151.3 and 145.9 and 222.1 and 185.6 and 197.7 and the raw luminescence reading ([3]; 50 nM, single wells) was 222.3 and 165.6 and 152.2 and 216.6 and 173.6 and 195.6.
